From ChEMBL document CHEMBL1127288, “Derivatives of D-penicillamine as potential antiarthritic agents” (1994)

Columns and labels:
Type in all cases: functional
Rattus norvegicus [1] = test: Paw diameter measured with a micrometer caliper after 42 days initial immunization with type II collagen in rats at a dose of 200 mg/kg
Rattus norvegicus [2] = test: Cartilage space narrowing was measured radiographically after 42 days initial immunization with type II collagen in rats at a dose of 200 mg/kg
Rattus norvegicus [3] = test: Erosions of tarsal bones measured radiographically after 42 days initial immunization with type II collagen in rats at a dose of 200 mg/kg

| Structure (SMILES) | Mean paw diameter (Rattus norvegicus [1]) [mm] | Cartilage space (Rattus norvegicus [2]) | Erosions (Rattus norvegicus [3]) |
| --- | --- | --- | --- |
| C[C@]12C=CC(=O)C=C1CCC1[C@@H]2[C@@H](O)C[C@@]2(C)[C@H]1CC[C@]2(O)C(=O)CO (single isomer, unassigned) [PREDNISOLONE] | 7.92 | 3.27 | 3.5 |
| COc1ccc2c(c1)c(CC(=O)O)c(C)n2C(=O)c1ccc(Cl)cc1 [INDOMETHACIN] | 8 | 2.94 | 2.94 |
| CC(C)(S)[C@@H](N)C(=O)O [PENICILLAMINE] | 8.89 | 2.72 | 2.83 |
| CCCCC1C(=O)N(c2ccccc2)N(c2ccccc2)C1=O [PHENYLBUTAZONE] | 8.42 | 2.86 | 3.33 |
